Data published in patent US10954269B2, “Anti-inflammatory tripeptides” (Dr. August Wolff Gmbh & Co. KG Arzneimittel, priority 2013, dated 2021).

How the values were obtained:
Conditions in all cases: substance 10^−9M
primary human T-cells = assay: Cytokine secretion on protein level in activated primary human T-cells (13-plex FACS / Luminex, supernatant); type: cell-based
Procedure, shortened: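 PMA/Ionomycin- or IFN-γ-activated cells (48 h) treated with tripeptides; supernatant 13-plex FACS at 48 h and 72 h post-stimulation. Luminex run: PMA/Ionomycin plus compound at 10^−7, 10^−9, 10^−11 M; IFN-γ, IL-17, IL-10 for T cells, IFN-γ for HaCaT.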

primary murine T-cells = assay: Cytokine secretion on protein level in activated primary murine T-cells (13-plex FACS / Luminex, supernatant); type: cell-based, C57BL/6 mice
Procedure, shortened: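 T-cells from secondary lymphatic organs of naïve C57BL/6 mice, stimulated with PMA/Ionomycin or IFN-γ; supernatant cytokines measured by 13-plex FACS 48 h and 72 h after stimulation. In another run, PMA/Ionomycin-stimulated cells received compounds at 10^−7, 10^−9 and 10^−11 M, with IFN-γ, IL-17 and IL-10 measured by Luminex.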

[1] = test system: human keratinocyte cell line (HaCaT); assay: Cytokine secretion on protein level in activated human keratinocyte cell line HaCaT (13-plex FACS / Luminex, supernatant); type: cell-based
Procedure, shortened: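 Primary T-cells from peripheral blood of healthy volunteers, or HaCaT cells, were activated with PMA/Ionomycin or IFN-γ for 48 h and treated with tripeptides. Supernatants were collected 48 h and 72 h after stimulation and cytokines (IL-1, IL-2, IL-6, IL-12p70, IL-17, IFN-γ, TNF-α) were measured by 13-plex FACS.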

[2] = primary human T-cells stimulated with IFN-γ
[3] = primary human T-cells stimulated with PBS
[4] = primary human T-cells stimulated with PMA/Ionomycin
[5] = primary murine T-cells stimulated with IFN-γ
[6] = primary murine T-cells stimulated with PBS
[7] = primary murine T-cells stimulated with PMA/Ionomycin
[8] = HaCaT stimulated with PMA/Ionomycin

Substance: H-(L)-Lys-(L)-Pro-Alb-NH2 [Example 10]
- IL-1 cytokine concentration (primary human T-cells; [2]): 139.49 pg/mL
- IL-2 cytokine concentration (primary human T-cells; [2]): 231.83 pg/mL
- IL-4 cytokine concentration (primary human T-cells; [2]): 160.97 pg/mL
- IL-5 cytokine concentration (primary human T-cells; [2]): 0 pg/mL
- IL-6 cytokine concentration (primary human T-cells; [2]): 105.21 pg/mL
- IL-9 cytokine concentration (primary human T-cells; [2]): 0 pg/mL
- IL-10 cytokine concentration (primary human T-cells; [2]): 0 pg/mL
- IL-12p70 cytokine concentration (primary human T-cells; [2]): 0 pg/mL
- IL-13 cytokine concentration (primary human T-cells; [2]): 162.81 pg/mL
- IL-17 cytokine concentration (primary human T-cells; [2]): 250.1 pg/mL
- IL-22 cytokine concentration (primary human T-cells; [2]): 0 pg/mL
- TNF-α cytokine concentration (primary human T-cells; [2]): 0 pg/mL
- IL-1 cytokine concentration (primary human T-cells; [3]): 0 pg/mL
- IL-2 cytokine concentration (primary human T-cells; [3]): 0 pg/mL
- IL-4 cytokine concentration (primary human T-cells; [3]): 0 pg/mL
- IL-5 cytokine concentration (primary human T-cells; [3]): 0 pg/mL
- IL-6 cytokine concentration (primary human T-cells; [3]): 216.7 pg/mL
- IL-9 cytokine concentration (primary human T-cells; [3]): 23.18 pg/mL
- IL-10 cytokine concentration (primary human T-cells; [3]): 48.86 pg/mL
- IL-12p70 cytokine concentration (primary human T-cells; [3]): 0 pg/mL
- IL-13 cytokine concentration (primary human T-cells; [3]): 0 pg/mL
- IL-17 cytokine concentration (primary human T-cells; [3]): 0 pg/mL
- IL-22 cytokine concentration (primary human T-cells; [3]): 0 pg/mL
- INF-α cytokine concentration (primary human T-cells; [3]): 0 pg/mL
- TNF-α cytokine concentration (primary human T-cells; [3]): 21.65 pg/mL
- IL-1 cytokine concentration (primary human T-cells; [4]): 878.53 pg/mL
- IL-2 cytokine concentration (primary human T-cells; [4]): 5107.74 pg/mL
- IL-4 cytokine concentration (primary human T-cells; [4]): 179.62 pg/mL
- IL-5 cytokine concentration (primary human T-cells; [4]): 416.25 pg/mL
- IL-6 cytokine concentration (primary human T-cells; [4]): 1255.58 pg/mL
- IL-9 cytokine concentration (primary human T-cells; [4]): 461.98 pg/mL
- IL-10 cytokine concentration (primary human T-cells; [4]): 729.43 pg/mL
- IL-12p70 cytokine concentration (primary human T-cells; [4]): 0 pg/mL
- IL-13 cytokine concentration (primary human T-cells; [4]): 1183.46 pg/mL
- IL-17 cytokine concentration (primary human T-cells; [4]): 2234.39 pg/mL
- IL-22 cytokine concentration (primary human T-cells; [4]): 0 pg/mL
- INF-α cytokine concentration (primary human T-cells; [4]): 11538.53 pg/mL
- TNF-α cytokine concentration (primary human T-cells; [4]): 4132.03 pg/mL
- IL-1 cytokine concentration (primary murine T-cells; [5]): 77.81 pg/mL
- IL-2 cytokine concentration (primary murine T-cells; [5]): 93.19 pg/mL
- IL-4 cytokine concentration (primary murine T-cells; [5]): 81.11 pg/mL
- IL-5 cytokine concentration (primary murine T-cells; [5]): 238.38 pg/mL
- IL-6 cytokine concentration (primary murine T-cells; [5]): 139.83 pg/mL
- IL-10 cytokine concentration (primary murine T-cells; [5]): 2024.06 pg/mL
- IL-13 cytokine concentration (primary murine T-cells; [5]): 0 pg/mL
- IL-17 cytokine concentration (primary murine T-cells; [5]): 0 pg/mL
- IL-21 cytokine concentration (primary murine T-cells; [5]): 0 pg/mL
- IL-22 cytokine concentration (primary murine T-cells; [5]): 57.35 pg/mL
- IL-27 cytokine concentration (primary murine T-cells; [5]): 1.29 pg/mL
- TNF-α cytokine concentration (primary murine T-cells; [5]): 32.42 pg/mL
- IFN-γ cytokine concentration (primary murine T-cells; [6]): 0 pg/mL
- IL-1 cytokine concentration (primary murine T-cells; [6]): 66.84 pg/mL
- IL-2 cytokine concentration (primary murine T-cells; [6]): 132.67 pg/mL
- IL-4 cytokine concentration (primary murine T-cells; [6]): 65.63 pg/mL
- IL-5 cytokine concentration (primary murine T-cells; [6]): 229.8 pg/mL
- IL-6 cytokine concentration (primary murine T-cells; [6]): 177.95 pg/mL
- IL-10 cytokine concentration (primary murine T-cells; [6]): 923.65 pg/mL
- IL-13 cytokine concentration (primary murine T-cells; [6]): 0 pg/mL
- IL-17 cytokine concentration (primary murine T-cells; [6]): 0 pg/mL
- IL-21 cytokine concentration (primary murine T-cells; [6]): 0 pg/mL
- IL-22 cytokine concentration (primary murine T-cells; [6]): 71.47 pg/mL
- IL-27 cytokine concentration (primary murine T-cells; [6]): 0 pg/mL
- TNF-α cytokine concentration (primary murine T-cells; [6]): 77.08 pg/mL
- IFN-γ cytokine concentration (primary murine T-cells; [7]): 2377.98 pg/mL
- IL-1 cytokine concentration (primary murine T-cells; [7]): 173.61 pg/mL
- IL-2 cytokine concentration (primary murine T-cells; [7]): 179.75 pg/mL
- IL-4 cytokine concentration (primary murine T-cells; [7]): 56.84 pg/mL
- IL-5 cytokine concentration (primary murine T-cells; [7]): 267.52 pg/mL
- IL-6 cytokine concentration (primary murine T-cells; [7]): 164.16 pg/mL
- IL-10 cytokine concentration (primary murine T-cells; [7]): 1182.68 pg/mL
- IL-13 cytokine concentration (primary murine T-cells; [7]): 0 pg/mL
- IL-17 cytokine concentration (primary murine T-cells; [7]): 86.12 pg/mL
- IL-21 cytokine concentration (primary murine T-cells; [7]): 0 pg/mL
- IL-22 cytokine concentration (primary murine T-cells; [7]): 44.47 pg/mL
- IL-27 cytokine concentration (primary murine T-cells; [7]): 8.48 pg/mL
- TNF-α cytokine concentration (primary murine T-cells; [7]): 33.37 pg/mL
- IL-1 cytokine concentration ([1]; HaCaT stimulated with IFN-γ): 0 pg/mL
- IL-2 cytokine concentration ([1]; HaCaT stimulated with IFN-γ): 0 pg/mL
- IL-4 cytokine concentration ([1]; HaCaT stimulated with IFN-γ): 183.12 pg/mL
- IL-5 cytokine concentration ([1]; HaCaT stimulated with IFN-γ): 88.64 pg/mL
- IL-6 cytokine concentration ([1]; HaCaT stimulated with IFN-γ): 346.73 pg/mL
- IL-9 cytokine concentration ([1]; HaCaT stimulated with IFN-γ): 0 pg/mL
- IL-10 cytokine concentration ([1]; HaCaT stimulated with IFN-γ): 0 pg/mL
- IL-12p70 cytokine concentration ([1]; HaCaT stimulated with IFN-γ): 0 pg/mL
- IL-13 cytokine concentration ([1]; HaCaT stimulated with IFN-γ): 1904.09 pg/mL
- IL-17 cytokine concentration ([1]; HaCaT stimulated with IFN-γ): 189.1 pg/mL
- IL-22 cytokine concentration ([1]; HaCaT stimulated with IFN-γ): 0 pg/mL
- TNF-α cytokine concentration ([1]; HaCaT stimulated with IFN-γ): 0 pg/mL
- IFN-γ cytokine concentration ([1]; HaCaT stimulated with PBS): 469.17 pg/mL
- IL-1 cytokine concentration ([1]; HaCaT stimulated with PBS): 170.16 pg/mL
- IL-2 cytokine concentration ([1]; HaCaT stimulated with PBS): 0 pg/mL
- IL-4 cytokine concentration ([1]; HaCaT stimulated with PBS): 218.04 pg/mL
- IL-5 cytokine concentration ([1]; HaCaT stimulated with PBS): 0 pg/mL
- IL-6 cytokine concentration ([1]; HaCaT stimulated with PBS): 125.38 pg/mL
- IL-9 cytokine concentration ([1]; HaCaT stimulated with PBS): 5.28 pg/mL
- IL-10 cytokine concentration ([1]; HaCaT stimulated with PBS): 0 pg/mL
- IL-12p70 cytokine concentration ([1]; HaCaT stimulated with PBS): 0 pg/mL
- IL-13 cytokine concentration ([1]; HaCaT stimulated with PBS): 1864.02 pg/mL
- IL-17 cytokine concentration ([1]; HaCaT stimulated with PBS): 230.84 pg/mL
- IL-22 cytokine concentration ([1]; HaCaT stimulated with PBS): 0 pg/mL
- TNF-α cytokine concentration ([1]; HaCaT stimulated with PBS): 0 pg/mL
- IFN-γ cytokine concentration [1, 8]: 327.78 pg/mL
- IL-1 cytokine concentration [1, 8]: 251.13 pg/mL
- IL-2 cytokine concentration [1, 8]: 189.17 pg/mL
- IL-4 cytokine concentration [1, 8]: 0 pg/mL
- IL-5 cytokine concentration [1, 8]: 0 pg/mL
- IL-6 cytokine concentration [1, 8]: 315.82 pg/mL
- IL-9 cytokine concentration [1, 8]: 14.67 pg/mL
- IL-10 cytokine concentration [1, 8]: 34.84 pg/mL
- IL-12p70 cytokine concentration [1, 8]: 0 pg/mL
- IL-13 cytokine concentration [1, 8]: 0 pg/mL
- IL-17 cytokine concentration [1, 8]: 45.41 pg/mL
- IL-22 cytokine concentration [1, 8]: 0 pg/mL
- TNF-α cytokine concentration [1, 8]: 53.51 pg/mL
